Key:
Assay type in all cases: cell-based
[1] = tested on: mouse melanoma cells [쥐의 멜라노마 세포(B-16 mouse melanoma cell)]; test: Inhibition of melanin production in B-16 mouse melanoma cells; details: relative to control; for inhibition rate (melanin production): 3 days, absorbance at 400 nm per 10^6 cells, n = 3
HAS-2 = HAS-2 mRNA expression in human keratinocytes (real time PCR); details: Keratinocyte, 24 h, untreated negative control = 100%, GAPDH reference, n = 4, read-out: HAS-2 expression amount
HAS-3 = HAS-3 mRNA expression in human keratinocytes (real time PCR); details: Keratinocyte, 24 h, untreated negative control = 100%, GAPDH reference, n = 4, read-out: HAS-3 expression amount
[2] = tested on: collagen type I [콜라겐 타입 I], human fibroblast [인간 유래 섬유아세포]; test: Collagen type I synthesis in human fibroblasts (PICP EIA kit); details: 48 h, n = 4
[3] = tested on: sulfated glycosaminoglycan [황산화 글리코사미노글리칸], human fibroblast [인간 유래 섬유아세포]; test: Sulfated glycosaminoglycan synthesis in human fibroblasts (Blyscan kit); details: 24 h; for sulfated glycosaminoglycan production amount: n = 4

With OC[C@H]1O[C@@H](Oc2ccc(O)cc2)[C@H](O)[C@@H](O)[C@@H]1O [알부틴, Arbutin, reference compound] the “inhibition rate (melanin production)” value ([1]; 200 ㎍/ml) was 31.3%.
For N[C@H]1C(O)O[C@H](CO)[C@@H](O)[C@@H]1O (stereo partly shown) [글루코사민, reference compound], the activity at 100 ppm (HAS-2; 100 ppm) was 114% and the activity at 100 ppm (HAS-3; 100 ppm) was 125%.
For COc1cc2ccc(=O)oc2c(OC)c1O [이소프락시딘, Isofraxidin], the collagen production amount ([2]; 10 ㎍/ml) was 304 ng/mL, the collagen production amount ([2]; 20 ㎍/ml) was 370 ng/mL and the “sulfated glycosaminoglycan production amount” value ([3]; 1 ㎍/ml) was 0.50 ng/mL. The “sulfated glycosaminoglycan production amount” value ([3]; 10 ㎍/ml) was 1.64 ng/mL, the “sulfated glycosaminoglycan production amount” value ([3]; 20 ㎍/ml) was 2.98 ng/mL and the activation at 20 µg/mL ([3]; Homo sapiens, Fibroblast, 20 ㎍/ml, relative to untreated control (0.46 ng/ml), n = 4, read-out: sulfated glycosaminoglycan production increase rate) was 548%. The activity at 1 ppm (HAS-2; 1 ppm) was 122%, the activity at 10 ppm (HAS-2; 10 ppm) was 135% and the activity at 1 ppm (HAS-3; 1 ppm) was 126%. For the same compound, the activity at 10 ppm (HAS-3; 10 ppm) was 151%, the “inhibition rate (melanin production)” value ([1]; 1 ㎍/ml) was 29.1% and the “inhibition rate (melanin production)” value ([1]; 10 ㎍/ml) was 34.9%. The “inhibition rate of melanin production (summary statement)” value ([1]; concentration not given) was at least 25%.
